Results: ChEMBL document CHEMBL1148180, “The isolation and structural elucidation of four novel triterpene lactones, pseudolarolides A, B, C, and D, from Pseudolarix kaempferi” (J Nat Prod, 1993)
In brackets after ≈: the same amount, converted by molar mass. Activity calls are given as the source filed them. The calls are words filed in the database; no cut-off is given here.

Experiments:
Human alphaherpesvirus 2 = test: Antiviral activity against HSV2 in african green monkey Vero cells assessed as inhibition of viral plaque formation; type: functional, organism-based
A549 = test: Cytotoxicity against human A549 cells; type: functional, cell-based
KB = test: Cytotoxicity against human KB cells; type: functional, cell-based
HCT-8 = test: Cytotoxicity against human HCT8 cells; type: functional, cell-based
TE-671 = test: Cytotoxicity against human TE671 cells; type: functional, cell-based
P388 = test: Cytotoxicity against mouse P388 cells; type: functional, cell-based

Structure (SMILES)	Activity (Human alphaherpesvirus 2)	EC50 (A549; a549)	EC50 (KB; kb)	EC50 (HCT-8; hct-8)	EC50 (TE-671)	EC50 (P388; p388)	EC50 (A549; Homo sapiens, A549, read-out: EC50)	EC50 (KB; Homo sapiens, KB, read-out: EC50)	EC50 (HCT-8; Homo sapiens, HCT-8, read-out: EC50)	EC50 (P388; Mus musculus, P388, read-out: EC50)
C[C@@H]1C[C@]2(C[C@@H](C)[C@H]3[C@@H](C[C@@]4(C)[C@@H]5CC[C@H]6C(C)(C)C(=O)CC[C@@]67C[C@@]57CC[C@]34C)O2)OC1=O [PSEUDOLAROLIDE A]	Active	Not Active	Not Active	Not Active	Not Active	Not Active	–	–	–	–
CC1=C[C@]2(C[C@@H](C)[C@H]3[C@@H](C[C@@]4(C)[C@@H]5CC[C@H]6C(C)(C)C(=O)CC[C@@]67C[C@@]57CC[C@]34C)O2)OC1=O [PSEUDOLAROLIDE B]	Active	–	–	–	Not Active	–	0.67 µg/mL (≈ 1.44 µM)	0.49 µg/mL (≈ 1.05 µM)	0.73 µg/mL (≈ 1.56 µM)	0.79 µg/mL (≈ 1.69 µM)
COC(=O)CC[C@]12C[C@]13CC[C@]1(C)[C@H]4[C@H](C)C[C@]5(C[C@@H](C)C(=O)O5)O[C@@H]4C[C@@]1(C)[C@@H]3CC[C@H]2C(C)(C)O [PSEUDOLAROLIDE C]	–	Not Active	Not Active	Not Active	Not Active	Not Active	–	–	–	–
C[C@@H]1C[C@]2(C[C@@H](C)[C@H]3[C@@H](C[C@@]4(C)[C@@H]5CC[C@H]6C(C)(C)OC(=O)CC[C@@]67C[C@@]57CC[C@]34C)O2)OC1=O [PSEUDOLAROLIDE D]	–	Not Active	Not Active	Not Active	Not Active	Not Active	–	–	–	–
